Columns and labels:
[1] = test system: Krotonöl-Entzündung in der Maus; experiment: Croton oil inflammation in the mouse (ear punch weight); type: in vivo, Mäusen (Charles River CD-1); details: for Gewicht der Ohrstücke in mg: croton oil alone 19,7±0,6, vehicle without croton oil 7,2; for Hemmung in %: topical, mouse ear, 6 h
Experimental: Eine Lösung aus 0,1 Teilen Krotonöl, 1 Teil destilliertem Wasser, 4 Teilen Pyridin und 4,9 Teilen Diäthyläther (Volumenteile), welche die Testverbindung enthält, wird topisch auf Ohren von 21 Tage alten männlichen Mäusen (Charles River CD-1) gegeben (25 ul). Verschiedene Gruppen von Mäusen dienten als Kontrollgruppen (Trägermaterial-Gruppe und Krotonöl-Gruppe). Nach 6 Stunden wird das Gewicht der Ohrstücke bestimmt, das in erster Linie ein Mass für die Oedem-Komponente der Entzündung ist. Verminderung des Gewichtes von Ohrstücken, welche von Mäusen erhalten wurden, welche mit der Testverbindung und dem Reizmittel behandelt worden sind, verglichen mit dem Gewicht von Ohrstücken, die von Mäusen erhalten wurden, die nur mit dem Reizmittel behandelt worden sind, zeigt entzündungshemmende Wirkung an (Endocrinology 77, 625-634, 1965; Clin. Pharm. Exp. Therap. 16, 900-904, 1974).
Die Verbindung E wird bei 3 verschiedenen Dosierungen im Krotonöl-Entzündungs-Test in der Maus auf ihre topisch entzündungshemmende Wirkung hin geprüft. Ebenfalls getestet werden Hydrocortison, ein bekanntes topisch entzündungshemmendes Corticosteroid, und eine Reihe von bekannten Verbindungen, welche systemisch entzündungshemmend wirken und nicht zur Klasse der Steroide gehören. Die Testresultate (Hemmung in Prozenten) sind in der unten stehenden Tabelle angegeben. Wie man diesen Resultaten entnehmen kann, entfaltet die Verbindung E eine vergleichbare Aktivität wie Hydrocortison, währenddem die anderen Verbindungen, welche nicht zur Klasse der Steroide gehören, in wesentlich höheren Dosierungen verabreicht werden müssen, um eine vergleichbare Hemmung zu bewirken, wie die Verbindung E und Hydrocortison.
Die entzündungshemmende Wirkung der Verbindung E alleine oder in Kombination mit 4-(3-Butoxy-4-methoxybenzyl)-2-imidazolidinon wird im Krotonöl-Test an der Maus bestimmt. Die Verbindung E wird bei verschiedenen Konzentrationen verwendet. 4-(3-Butoxy-4-methoxybenzyl)-2-imida- zolidinon wird, sofern vorhanden, in einer Konzentration von 5 Gewichtsprozenten (bezogen auf das Gewicht der applizierten Lösung) eingesetzt. Die Testresultate sind in der unten stehenden Tabelle aufgeführt.

[2] = test system: Oxazolon-Entzündung in vorsensibilisierten Mäusen; experiment: Oxazolone inflammation in presensitised mice (ear punch weight); type: in vivo, Mäuse (Charles River CD-1); details: topical, mouse ear, 24 h
Experimental: 21 Tage alte männliche Mäuse (Charles River CD-1) werden mit Oxazolon sensibilisiert, indem man 400 ug Oxazolon in 20 ul Aceton topisch auf das Scrotum appliziert.. Eine Woche später werden 10 ul Aceton oder 200 µg Oxazolon topisch auf die innere Oberfläche des Ohres und die Testverbindung in 10 µl Aceton auf die äussere Oberfläche des Ohres appliziert. Verschiedene Gruppen von Mäusen dienten als Kontrollgruppen (Trägermaterial-Gruppe und Oxazolon-Gruppe). Das Gewicht der Ohrstücke wird 24 Stunden später bestimmt. Verminderung des Gewichtes der Ohrstücke, erhalten aus Mäusen, welche mit der Testverbindung und mit Oxazolon behandelt worden sind, verglichen mit dem Gewicht der Ohrstücke, erhalten aus Mäusen, welche mit Oxazolon alleine behandelt worden sind, zeigt entzündungshemmende Wirkungen (Br. J. Pharmacol. 43, 403-408, 1971).
Die topisch entzündungshemmenden Wirkungen der Verbindung E, Hydrocortison und Indomethacin werden bei verschiedenen Dosierungen im Oxazolon-Entzündungs-Test in vorsensibilisierten Mäusen bestimmt. Die Testresultate (Hemmung in %) sind in der untenstehenden Tabelle angegeben.

[3] = test system: Baumwollkügelchen-Granuloma; experiment: Cotton pellet granuloma method in the rat; type: in vivo, Ratten (Charles River CD); details: s.c. implant, 72 h; for durchschnittliches Nettogewicht der Kügelchen in mg trocken: ethanol vehicle 32.6; for durchschnittliches Nettogewicht der Kügelchen in mg feucht: ethanol vehicle 392.5
Experimental: Man löst die Testverbindung in einem geeigneten Lösungsmittel und appliziert jeweils 0,1 ml dieser Lösung auf einheitliche, vorher gewogene Baumwollkügelchen, die man aus Baumwolltampons herausgeschnitten hat. Man trocknet die Baumwollkügelchen bei Raumtemperatur. 2 mit der Testverbindung imprägnierte Kügelchen werden auf dem Dorsum von 5 Wochen alten männlichen Ratten (Charles River CD) subcutan inplantiert. 72 Stunden später werden die Kügelchen entfernt. Man bestimmt das Feucht- und Trockengewicht und korrigiert um das Tara der Kügelchen. Vergleicht man nun die Gewichte der Granulomata, die man von mit der Testverbindung imprägnierten Kügelchen erhalten hat, mit den Gewichten der Granulomata, die man von nur mit Trägermaterial imprägnierten Kügelchen erhalten hat, miteinander, so zeigt eine Abnahme des Gewichtes entzündungshemmende Wirkung an (Endocrinology 60, 153-160, 1957).
Die topisch entzündungshemmenden Wirkungen der Verbindung E und Hydrocortison werden durch Verwendung des Baumwollkügelchen-Granuloma-Verfahrens an der Ratte bestimmt. Die in der unten stehenden Tabelle angegebenen Testresultate zeigen, dass die Verbindung E bei Dosierungenen von 90 und 270 µg/0,1 ml grösser ist als die Akti- vität von Hydrocortison (niedrigere Feucht- und Trockengewichte).

[4] = test system: Cantharidin-Entzündung in der Ratte; experiment: Cantharidin inflammation in the rat (ear punch weight); type: in vivo, Ratten (Charles River CD); details: 100 µg/0,1 ml topical, compound given 24 h after cantharidin, autopsy 72 h
Experimental: Eine Lösung aus einem Teil Aethanol, 1,5 Teilen Collodion, 2 Teilen Aceton und 3 Teilen Diäthyläther (Volumenteile), welche 400 ug Cantharidin/0,1 ml und die Testverbindung in der gewünschten Menge enthält, wird topisch auf die äussere Oberfläche von Ohren von 21 Tage alten männlichen Ratten (Charles River CD) gegeben (0,1 ml). Andere Gruppen von Ratten werden mit Trägermaterial alleine, mit Cantharidin alleine und mit Cantharidin plus Testverbindung behandelt. Wo in den Beispielen angegeben, wird die Testverbindung 24 Stunden nach Verabreichung von Cantharidin verabreicht. 72 Stunden nach Verabreichung von Cantharidin wird eine Autopsie durchgeführt. Aus dem Ohr werden an der behandelten Stelle einheitliche Stücke herausgestanzt und gewogen. Aus den Gewichtsveränderungen lassen sich die Auswirkungen auf den Entzündungsprozess ermitteln, und zwar sowohl für die Flüssigkeits- als auch für die Gewebskomponente. Eine Reduktion des Gewichtes von Hautstücken, die man aus Ratten erhalten hat, welche mit dem Reizmittel und der Testverbindung behandelt worden sind, verglichen mit dem Gewicht von Hautstücken, welche man von Ratten erhalten hat, die nur mit dem Reizmittel behandelt worden sind, zeigt eine entzündungshemmende Wirkung an (J. Invest. Dermatol. 68, 161-164, 1977).
Eine Reihe von Verbindungen der allgemeinen Formel I werden im Cantharidin-Entzündungs-Test in der Ratte auf ihre topisch entzündungshemmenden Wirkungen hin ge- testet. Jede Verbindung wird bei 5 verschiedenen Dosierungen getestet. Die in der nachfolgenden Tabelle ange- gebenen Testresultate (in %) geben an, um wieviel die durch Cantharidin bewirkte Zunahme des Gewichtes der Ohrstücke durch die jeweilige Testverbindung reduziert wird: • [formula]
Die topisch entzündungshemmende Wirkung der Verbindung E wird bei einer Dosierung von 100 µg/0,1 ml im Cantharidin- Entzündungs-Test in der Ratte bestimmt, wobei man adrenalektomierte und intakte Ratten verwendet. Wie man den Testresultaten in der untenstehenden Tabelle entnehmen kann, entfaltet die Verbindung E an der adrenalektomierten Ratte etwa die gleich grosse Wirkung wie an der intakten Ratte. Dies zeigt an, dass der primäre Wirkungsmechanismus nicht in der Stimulierung der Nebennierenrinde besteht.

[5] = pellets impregnated with 90 µg/0.1 ml
[6] = pellets impregnated with 270 µg/0.1 ml

Q: How did the “Gewicht der Ohrstücke in mg” value ([1]; 5% imidazolidinone, Verbindung E 0 µg/0,1 ml) turn out when CCCCOc1cc(CC2CNC(=O)N2)ccc1OC (stereo not drawn) [4-(3-Butoxy-4-methoxybenzyl)-2-imidazolidinon] was run?
A: 17,6±1,0 mg

Q: And the “entzündungshemmende Wirkung” value ([1]; alone, at concentrations of 5%, test not given)?
A: nur wenig oder gar keine entzündungshemmende Wirkung

Q: What about the “Einfluss auf die entzündungshemmende Wirkung der Verbindung E” value ([1]; imidazolidinone at 5% combined with Verbindung E) of the same molecule?
A: potenziert

Q: With CC(=O)Oc1ccccc1C(=O)O [Acetylsalicyl säure] as the molecule, how does the Hemmung in % ([1]; dose 1250 µg/25 µl) read?
A: 28%

Q: What about the Hemmung in % ([1]; dose 2500 µg/25 µl) of the same molecule?
A: 36%

Q: And the Hemmung in % ([1]; dose 5000 µg/25 µl)?
A: 78%

Q: What about the Hemmung in % ([1]; dose 10000 µg/25 µl) of the same molecule?
A: 88%

Q: Which results are given for CC(C(=O)O)c1cccc(Oc2ccccc2)c1 (stereo not drawn) [Fenoprofen]?
A: Hemmung in % ([1]; dose 1250 µg/25 µl): 50%; Hemmung in % ([1]; dose 2500 µg/25 µl): 71%

Q: How did the Hemmung in % ([1]; dose 50 µg/25 µl) turn out when C[C@]12CCC(=O)C=C1CC[C@@H]1[C@@H]2[C@@H](O)C[C@@]2(C)[C@H]1CC[C@]2(O)C(=O)CO [Hydrocortison] was run?
A: 53%

Q: And the Hemmung in % ([1]; dose 125 µg/25 µl)?
A: 77%

Q: And the Hemmung in % ([1]; dose 250 µg/25 µl)?
A: 98%

Q: What about the Hemmung in % ([2]; dose 50 µg/10 µl) of the same molecule?
A: 24%

Q: What about the Hemmung in % ([2]; dose 200 µg/10 µl) of the same molecule?
A: 49%

Q: What about the “durchschnittliches Nettogewicht der Kügelchen in mg trocken” value [3, 5] of the same molecule?
A: 37.7 mg

Q: What about the “durchschnittliches Nettogewicht der Kügelchen in mg feucht” value [3, 5] of the same molecule?
A: 406.5 mg

Q: And the “durchschnittliches Nettogewicht der Kügelchen in mg trocken” value [3, 6]?
A: 20.3 mg

Q: And the “durchschnittliches Nettogewicht der Kügelchen in mg feucht” value [3, 6]?
A: 286.6 mg

Q: How did the Hemmung in % ([2]; dose 500 µg/10 µl) turn out when COc1ccc2c(c1)c(CC(=O)O)c(C)n2C(=O)c1ccc(Cl)cc1 [Indomethacin] was run?
A: 32%

Q: And the Hemmung in % ([2]; dose 1000 µg/10 µl)?
A: 59%

Q: Which results are given for COc1ccc2cc([C@H](C)C(=O)O)ccc2c1 [Naproxen]?
A: Hemmung in % ([1]; dose 1250 µg/25 µl): 60%; Hemmung in % ([1]; dose 2500 µg/25 µl): 87%

Q: What does the source list for CN1CCN(C2=Cc3ccccc3Sc3ccc(Cl)cc32)CC1 [Verbindung E, 8-Chlor-10-(4-methylpiperazino)dibenzo-[b,f]thiepin]?
A: Hemmung in % ([4]; adrenalectomised rats): 49%; Gewicht der Ohrstücke ([4]; adrenalectomised rats, vehicle 11.4±0.2, cantharidin alone 25.5±1.0): 18.6±0.6; Hemmung in % ([4]; intact rats): 55%; Gewicht der Ohrstücke ([4]; intact rats, vehicle 12.0±0.4, cantharidin alone 25.2±1.5): 18.0±1.1; Gewicht der Ohrstücke in mg ([1]; Verbindung E alone, 100 µg/0,1 ml): 15,9±0,8 mg; Gewicht der Ohrstücke in mg ([1]; Verbindung E alone, 400 µg/0,1 ml): 11,8±0,6 mg; Hemmung in % ([1]; dose 100 µg/25 µl): 48%; Hemmung in % ([1]; dose 200 µg/25 µl): 67%; Hemmung in % ([1]; dose 500 µg/25 µl): 91%; Hemmung in % ([2]; dose 100 µg/10 µl): 51%; Hemmung in % ([2]; dose 500 µg/10 µl): 75%; durchschnittliches Nettogewicht der Kügelchen in mg trocken [3, 5]: 20.1 mg; durchschnittliches Nettogewicht der Kügelchen in mg feucht [3, 5]: 285.2 mg; durchschnittliches Nettogewicht der Kügelchen in mg trocken [3, 6]: 16.9 mg; durchschnittliches Nettogewicht der Kügelchen in mg feucht [3, 6]: 234.9 mg

Q: Which results are given for Phenylbutazon?
A: Hemmung in % ([1]; dose 1250 µg/25 µl): 33%; Hemmung in % ([1]; dose 2500 µg/25 µl): 69%

Reference: EP0039059A2, “Anti-inflammatory drugs and their application” (F. HOFFMANN-LA ROCHE & CO. Aktiengesellschaft, priority 1980, dated 1981)
